Test results reported in the supplement of paper PMC9549728.
Structures can show the parent of a compound that is named as a salt.

What was measured:
Test in all cases: IC50 (viability, PrestoBlue) (log10 nM)
Details in all cases: exposure time: 72 h
[1] = system: murine gastric organoid diffuse (Cdh1 fl/fl; Apc fl/fl)
Protocol: (§1)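 Murine gastric corpus organoids (normal uninduced; RAS-activated Kras G12D/Tp53 R172H; diffuse Cdh1/Apc loss; WNT-activated Apc loss/Tp53 R172H) were seeded in Matrigel into pre-spotted 384-well plates. The plates held a 196-compound library at 6.7 nM to 25,004 nM (9 doses) and were incubated 72 h. Viability was read by PrestoBlue fluorescence (560/590 nm). IC50 came from non-linear regression (Prism), reported as log10 IC50 in nM, mean of 3 passages x 2 wells.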

[2] = system: murine gastric organoid RAS-activated (Kras G12D; Tp53 R172H)
Protocol: as §1

[3] = system: murine normal gastric organoid
Protocol: as §1

[4] = system: murine gastric organoid WNT-activated (Apc fl/fl; Tp53 R172H)
Protocol: as §1

| SMILES | IC50 (log10 nM) [1] | IC50 (log10 nM) [2] | IC50 (log10 nM) [3] | IC50 (log10 nM) [4] |
| --- | --- | --- | --- | --- |
| Cc1nc(C(=O)NCC(=O)O)c(O)c2ccc(Oc3ccccc3)cc12 [Roxadustat (FG-4592)] | 3.27 | < 0.826 | 2.38 | 1.23 |
| O=C(Nc1cccc(Cl)c1)Nc1ncc(CCNc2ncnc3ccsc23)s1 [SNS-314] | 4.02 | 2.47 | 3.2 | 2.87 |
| Cc1cc(C)c(/C=C2\C(=O)Nc3ccccc32)[nH]1 [SU 5416] | 4.33 | 4.36 | 4.03 | 3.77 |
| Cn1cnc2c(F)c(Nc3ccc(Br)cc3Cl)c(C(=O)NOCCO)cc21 [Selumetinib] | 3.15 | 2.61 | 2.47 | 3.32 |
| CC(C)[C@H](O)C(=O)N[C@@H](C)C(=O)N[C@@H]1C(=O)N(C)CCc2ccccc21 [Semagacestat] | > 4.4 | > 4.4 | 4.35 | 2.37 |
| CNC(=O)c1cc(Oc2ccc(NC(=O)Nc3ccc(Cl)c(C(F)(F)F)c3)cc2)ccn1 [Sorafenib] | 3.88 | 3.98 | 3.78 | 3.9 |
| CN(N=O)C(=O)N[C@@H](C=O)[C@@H](O)[C@H](O)[C@H](O)CO [Streptozocin] | > 4.4 | > 4.4 | 4.39 | 4.07 |
| CCN(CC)CCNC(=O)c1c(C)[nH]c(/C=C2\C(=O)Nc3ccc(F)cc32)c1C [Sunitinib] | 3.92 | 3.93 | 3.8 | 3.94 |
| CC(=O)Nc1ccc(C(=O)Nc2ccccc2N)cc1 [Tacedinaline] | 3.97 | 3.87 | 4.34 | 4.35 |
| COc1cc2c(cc1OC)CN(CCc1ccc(NC(=O)c3cc(OC)c(OC)cc3NC(=O)c3cnc4ccccc4c3)cc1)CC2 [Tariquidar] | 3.95 | 3.73 | 4.26 | 3.76 |
| Cn1nnc2c(C(N)=O)ncn2c1=O [Temozolomide] | > 4.4 | > 4.4 | 4.37 | 4.02 |
| COc1cc([C@@H]2c3cc4c(cc3[C@@H](O[C@@H]3O[C@@H]5CO[C@@H](c6cccs6)O[C@H]5[C@H](O)[C@H]3O)[C@H]3COC(=O)[C@H]23)OCO4)cc(OC)c1O [Teniposide] | 2.35 | 1.83 | 1.79 | 2.84 |
| S=P(N1CC1)(N1CC1)N1CC1 [Thio-TEPA] | > 4.4 | 4.17 | 4.21 | 4.16 |
| CSc1ccc2c(c1)N(CCC1CCCCN1C)c1ccccc1S2 (stereo unspecified) [Thioridazine hydrochloride] | 4.13 | 4 | 3.9 | 3.52 |
| Cn1cncc1[C@@](N)(c1ccc(Cl)cc1)c1ccc2c(c1)c(-c1cccc(Cl)c1)cc(=O)n2C [Tipifarnib] | 3.73 | < 0.826 | 2.96 | 3.16 |
| O=C1NC(=O)[C@@H](c2cn3c4c(cccc24)CCC3)[C@@H]1c1c[nH]c2ccccc12 [Tivantinib] | 3.1 | 2.4 | 2.87 | 2.79 |
| COc1cc2nccc(Oc3ccc(NC(=O)Nc4cc(C)on4)c(Cl)c3)c2cc1OC [Tivozanib] | > 4.4 | 3.6 | 2.5 | 3.74 |

| SMILES | IC50 (log10 nM) [1] | IC50 (log10 nM) [2] | IC50 (log10 nM) [3] | IC50 (log10 nM) [4] |
| --- | --- | --- | --- | --- |
| CC[C@@]1(O)C(=O)OCc2c1cc1n(c2=O)Cc2cc3c(CN(C)C)c(O)ccc3nc2-1 [Topotecan hydrochloride] | 2.4 | 1.68 | 1.48 | 2.36 |
| CC(=O)Nc1cccc(-n2c(=O)n(C3CC3)c(=O)c3c(Nc4ccc(I)cc4F)n(C)c(=O)c(C)c32)c1 [Trametinib] | 1.71 | 1.33 | 1.36 | 1.9 |
| CC(C)Nc1cc(-c2c[nH]c(C(=O)N[C@H](CO)c3cccc(Cl)c3)c2)c(Cl)cn1 [Ulixertinib] | 3.42 | 3.09 | 2.79 | 2.96 |
| Oc1ncc(N(CCCl)CCCl)c(O)n1 [Uramustine] | 3.69 | 3.2 | 3.3 | 3.68 |
| CCCCC(=O)OCC(=O)[C@]1(O)Cc2c(O)c3c(c(O)c2[C@@H](O[C@H]2C[C@H](NC(=O)C(F)(F)F)[C@H](O)[C@H](C)O2)C1)C(=O)c1c(OC)cccc1C3=O [Valrubicin] | 2.58 | 2.49 | 2.43 | 2.65 |
| COc1cc2/c(=N/c3ccc(Br)cc3F)nc[nH]c2cc1OCC1CCN(C)CC1 [Vandetanib] | 2.76 | 2.63 | 3.95 | 2.64 |
| Clc1ccc(Nc2nnc(Cc3ccncc3)c3ccccc23)cc1 [Vatalanib] | 4.26 | 3.75 | 3.55 | 3.61 |
| CC[C@]1(O)C[C@@H]2CN(CCc3c([nH]c4ccccc34)[C@@](C(=O)OC)(c3cc4c(cc3OC)N(C)[C@H]3[C@@](O)(C(=O)OC)[C@H](OC(C)=O)[C@]5(CC)C=CCN6CC[C@]43[C@@H]65)C2)C1 [Vinblastine sulfate] | < 0.826 | < 0.826 | < 0.826 | < 0.826 |
| CC[C@]1(O)C[C@H]2CN(CCc3c([nH]c4ccccc34)[C@@](C(=O)OC)(c3cc4c(cc3OC)N(C=O)[C@H]3[C@@](O)(C(=O)OC)[C@H](OC(C)=O)[C@]5(CC)C=CCN6CC[C@]43[C@@H]65)C2)C1 [Vincristine sulfate] | 1.89 | 2.08 | 1.68 | 2.19 |
| CC[C@]12C=CCN3CC[C@@]4(c5cc([C@@]6(C(=O)OC)C[C@@H]7C[C@@H](C(C)(F)F)CN(Cc8c6[nH]c6ccccc86)C7)c(OC)cc5N(C)[C@H]4[C@@](O)(C(=O)OC)[C@@H]1OC(C)=O)[C@@H]32 [Vinflunine tartrate] | 2.23 | 2.32 | 2.09 | 1.63 |
| CC[C@@H]1C(=O)N(C)c2cnc(Nc3ccc(C(=O)N[C@H]4CC[C@H](N5CCN(CC6CC6)CC5)CC4)cc3OC)nc2N1C(C)C [Volasertib] | 2.29 | 2.09 | 1.98 | 2.19 |
| O=C(CCCCCCC(=O)Nc1ccccc1)NO [Vorinostat] | 3.65 | 3.28 | 3.62 | 3.67 |
| C[C@H](NC(=O)/C(C#N)=C/c1cccc(Br)n1)c1ccccc1 [WP1066] | 3.52 | 3.49 | 3.47 | 3.26 |
| O[C@@H](COc1cccc2ncccc12)CN1CCN([C@@H]2c3ccccc3[C@@H]3[C@H](c4ccccc42)C3(F)F)CC1 [Zosuquidar trihydrochloride] | 4.02 | 4.07 | 3.88 | 4.03 |
| COC(=O)[C@]12CCC(C)(C)C[C@H]1[C@H]1C(=O)C=C3[C@@]4(C)C=C(C#N)C(=O)C(C)(C)[C@@H]4CC[C@@]3(C)[C@]1(C)CC2 [bardoxolone methyl] | 3.24 | 2.38 | 2.61 | 2.92 |
| O=c1[nH]cc(F)c(=O)[nH]1 [fluorouracil] | 3.28 | 3.32 | 3.4 | 4.09 |
| NC(=O)N1CCC(CC(=O)N2CCC([C@H]3c4ncc(Br)cc4CCc4cc(Cl)cc(Br)c43)CC2)CC1 [lonafarnib] | 4.3 | 3.03 | 3.33 | 3.47 |
